Measured values as given in US20250144047A1, “PHARMACEUTICAL COMPOSITION FOR PREVENTING, AMELIORATING, OR TREATING CANCER CONTAINING 8-PARADOL” (KDBIO CORP., priority 2022, published 2025).

Columns and labels:
AGS cells [1] = experiment: Mito-tracker, ROS and Mito-SOX staining; format: cell-based, human
Procedure: AGS cells (1×10^5 cells) were processed with the sample for 24 hours and then stained with a mitochondrial mito-tracker green kit (Thermo Fisher Scientific, Rockford, IL, USA). The stained cells were observed using the Leica DM IRB fluorescence microscope.
AGS cells were cultured at a density of 1×10^5 cells for 24 hours. After the sample were processed with the cultured cells, intracellular oxidative stress and superoxide were confirmed by a cell ROS/superoxide detection assay kit (Abcam, Cambridge, MA, USA). The degree of fluorescence was evaluated using the Leica DM IRB fluorescence microscope.

[2] = parameters: species or system mice; details: mouse, in vivo
Procedure: Male nude mice (CAnN.Cg-Foxn1-nu, 4 weeks old, 20 g to 22 g) were purchased from OrientBio (Seongnam, Republic of Korea). The mice were placed in a chamber with conditions maintained at 23° C. and 50% humidity with a period of 12 hours of light and 12 hours of darkness. All animal experiments were conducted according to the National Institutes of Health's Laboratory Animal Care and Use Guidelines (NIH Publications No. 8023, revised 1996) and the Kyung Hee University's Animal Care and Use Guidelines ([…]-441, approval data: Sep. 28, 2021). […] The control group was administered with only 0.9% of general saline during this period. Body weights and tumor volumes of the mice were measured daily in all mice during the study period. All mice were euthanized after the end of the experiments. Blood, liver, spleen, kidney, and tumor tissues were extracted and weighed. In order to obtain the protein of tumor tissue, a portion of the tissue was processed with RIPA buffer containing a protease inhibitor cocktail. Then, the expression degree of a specific protein (determined by Western blot) was determined. […] Fuji Dri-Chem analyzer (3500, Fuji Photo Film Co., Osaka, Japan) was used to measure alanine aminotransferase (ALT), aspartate aminotransferase (AST), total bilirumin (T-Bili), total protein (TP), albumin (Alb), albumin/globulin (A/G) ratio, total cholesterol (T-Chol), total triglyceride (TG), glucose (GLU), and blood urea nitrogen (BUN) values.

AGS cells [3] = system: AGS cells
Procedure: AGS cells were grown in RPMI medium containing 10% FBS and 1% PS. HEK293 and RAW264.7 cells were grown in DMEM medium containing 10% FBS and 1% PS under conditions of 37° C., 5% CO2 and 95% air.
In order to evaluate toxicity to each cell, the sample was incubated in each cell (1×10^5 cells/well) cultured in the above manner for 24 hours, and then cytotoxicity to each cell was examined by using the MTT assay.

[4] = system: AGS xenograft tumor tissue; experiment: Western blot of tumor tissue of xenograft mice; format: in vivo
Procedure: For whole protein extraction, AGS cells were processed with samples at various concentrations for 24 hours. The cells were dissolved using Pierce™ RIPA buffer (Thermo Fisher Scientific, Rockford, IL, USA) together with protease inhibitor cocktail (GenDEPOT, TX, USA). The cell-dissolved solution formed in the above manner was centrifuged at 12,000 rpm for 20 minutes. The protein was loaded into a 10% SDS-PAGE gel using a protein gel electrophoresis chamber system and transferred to a PVDF membrane (Thermo Fisher Scientific, Rockford, IL, USA). A PBST solution containing 5% skim milk was used to block the membrane at 25° C. for 1 hour. Then, the membrane was incubated overnight at 4° C. with primary antibodies. Finally, the membrane was incubated with the secondary antibodies at 25° C. for 1 hour, and a protein band was detected using West-Q Pico ECL Solution (GenDEPOT, TX, USA). The results were quantified using ImageJ software.
Each mouse was orally administered with 8-paradol and 5-FU once a day for a total of 16 days. The control group was administered with only 0.9% of general saline during this period. Body weights and tumor volumes of the mice were measured daily in all mice during the study period. All mice were euthanized after the end of the experiments. Blood, liver, spleen, kidney, and tumor tissues were extracted and weighed. In order to obtain the protein of tumor tissue, a portion of the tissue was processed with RIPA buffer containing a protease inhibitor cocktail. Then, the expression degree of a specific protein (determined by Western blot) was determined.

[5] = 8-paradol in combination with CQ, compared to 8-paradol solely

CCCCCCCCCC(=O)CCc1ccc(O)c(OC)c1 [Purified Compound 3, 8-paradol]
Mito-SOX (AGS cells [1]; [5]): partially reduced
segmented mitochondria (AGS cells [1]; [5]): reduced
ROS and Mito-SOX production (AGS cells [1]; AGS cells): overproduction
mitochondrial morphology (Mito-tracker) (AGS cells [1]; AGS cells, 24 hours): damaged and fragmented mitochondrial morphology
harm to the liver [2]: not harmful to the liver
kidney damage [2]: did not cause kidney damage
cytotoxicity to AGS cells (AGS cells [3]): killed in a concentration-dependent manner
cell viability (AGS cells [3]; 8-paradol and CQ in combination, compared to 8-paradol solely): significantly improved
IC50 (AGS cells [3]; read-out: IC50 on AGS cells, AGS cells, 24 hours, MTT assay): 14.9 ± 1.65 µM
expression degrees of p62 and Bcl-2 proteins ([4]; tumor tissue): significantly decreased
mitophagy-related proteins LC3, Pink1 and Parkin in tumor tissue ([4]; tumor tissue of processed mice): significantly increased in a dose-dependent manner
apoptosis-related proteins Bax, Cytochrome-c, Cleaved-caspase-3/caspase-3 and Cleaved-caspase-9/caspase-9 ([4]; tumor tissue, compared to control group): significantly increased
